Laboratory results reported in patent publication US7786143B2, “Thiazolyl piperidine derivatives” (Hoffman-La Roche Inc., priority 2005, dated 2010).

Molecular target: T1, histamine 3 receptor (H3R) (Homo sapiens, UniProt Q9Y5N1)
T1 construct: expressed in transfected cells; host or cells: CHO cells (HR3-CHO)
Test: Binding assay with 3H-(R)α-methylhistamine, competition binding on membranes of the human HR3-CHO cell line
Details: competition with 3H(R)α-methylhistamine (1 nM), Ki calculated from IC50 by Cheng-Prusoff
Method: Binding Assay with ^3H-(R)α-methylhistamine
Saturation binding experiments were performed using HR3-CHO membranes prepared as described in Takahashi, K, Tokita, S., Kotani, H. (2003) J. Pharmacol. Exp. Therapeutics 307, 213-218.
An appropriate amount of membrane (60 to 80 μg protein/well) was incubated with increasing concentrations of ^3H(R)α-Methylhistamine di-hydrochloride (0.10 to 10 nM). Non specific binding was determined using a 200 fold excess of cold (R)α-Methylhistamine dihydrobromide (500 nM final concentration). The incubation was carried out at room temperature (in deep-well plates shaking for three hours). The final volume in each well was 250 μl. The incubation was followed by rapid filtration on GF/B filters (pre-soaked with 100 μl of 0.5% PEI in Tris 50 mM shaking at 200 rpm for two hours). The filtration was made using a cell-harvester and the filter plates were then washed five times with ice cold washing buffer containing 0.5 M NaCl. After harvesting, the plates were dried at 55° C. for 60 min, then we added scintillation fluid (Microscint 40, 40 microl in each well) and the amount of radioactivity on the filter was determined in Packard top-counter after shaking the plates for two hours at 200 rpm at room temperature.
Binding Buffer: 50 mM Tris-HCl pH 7.4 and 5 mM MgCl2×6H2O pH 7.4. Washing Buffer: 50 mM Tris-HCl pH 7.4 and 5 mM MgCl2×6H2O and 0.5 M NaCl pH 7.4.
Indirect measurement of affinity of H3R inverse agonists: twelve increasing concentrations (ranging from 10 μM to 0.3 nM) of the selected compounds were always tested in competition binding experiments using membrane of the human HR3-CHO cell line. […]
All compounds were tested at a single concentration in duplicates. […] Ki's were calculated from IC50 based on Cheng-Prusoff equation (Cheng, Y, Prusoff, W H (1973) Biochem Pharmacol 22, 3099-3108).

T1 sequence (Q9Y5N1 whole entry): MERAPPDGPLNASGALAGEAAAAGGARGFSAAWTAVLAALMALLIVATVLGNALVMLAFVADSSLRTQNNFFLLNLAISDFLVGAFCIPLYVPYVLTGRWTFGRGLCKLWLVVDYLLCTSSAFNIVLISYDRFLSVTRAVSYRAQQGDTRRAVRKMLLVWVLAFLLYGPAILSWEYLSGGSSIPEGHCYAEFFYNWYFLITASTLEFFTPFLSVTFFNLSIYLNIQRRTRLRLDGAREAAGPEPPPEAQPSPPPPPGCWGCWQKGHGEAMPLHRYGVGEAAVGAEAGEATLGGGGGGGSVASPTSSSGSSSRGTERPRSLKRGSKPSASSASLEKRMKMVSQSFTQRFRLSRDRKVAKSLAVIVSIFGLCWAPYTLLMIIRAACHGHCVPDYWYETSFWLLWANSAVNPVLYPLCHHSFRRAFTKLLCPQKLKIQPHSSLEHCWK

COc1ccc(-c2csc(C3CCN(C(C)C)CC3)n2)cc1 [Example 9, 1-isopropyl-4-[4-(4-methoxy-phenyl)-thiazol-2-yl]-piperidine]
Ki: 28 nM

c1cc2c(cc1-c1csc(C3CCN(C4CCCC4)CC3)n1)OCCO2 [Example 52, 1-cyclopentyl-4-[4-(2,3-dihydro-benzo[1,4]dioxin-6-yl)-thiazol-2-yl]-piperidine]
Ki: 123 nM

CC1CCCCN1C(=O)c1csc(C2CCN(C3CCCC3)CC2)n1 (stereo not drawn) [Example 68, [2-(1-cyclopentyl-piperidin-4-yl)-thiazol-4-yl]-(2-methyl-piperidin-1-yl)-methanone]
Ki: 156 nM
